Test results from patent publication US20260285850A1, “SUBSTITUTED OXAZOLIDINONES AND IMIDAZOLINONES AS HERBICIDES” (FMC CORPORATION, priority 2023, published 2026).

Experiments:
Assay type in all cases: in vivo
[1] = system: barnyardgrass (Echinochloa crus-galli); test: Test A preemergence soil spray, visual injury rating 0-100; conditions: 10 days
How it was run: (§1)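 Seeds sown in loam-sand blend got a preemergence directed soil spray, or emerged plants (2-10 cm, one- to two-leaf) got a postemergence spray, of compound in non-phytotoxic solvent with surfactant. After 10 days in greenhouse, injury rated visually versus untreated controls on a 0 (no effect) to 100 (complete control) scale.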

[2] = system: blackgrass (Alopecurus myosuroides); test: as above; conditions: 10 days
How it was run: as §1

corn (Zea mays) [3] = test: as above; conditions: 10 days
How it was run: as §1

[4] = system: green foxtail (Setaria viridis); test: as above; conditions: 10 days
How it was run: as §1

kochia (Bassia scoparia) [5] = test: as above; conditions: 10 days
How it was run: as §1

[6] = system: oat, wild (wild oat, Avena fatua); test: as above; conditions: 10 days
How it was run: as §1

[7] = system: palmer (palmer amaranth, palmer pigweed, Amaranthus palmeri); test: as above; conditions: 10 days
How it was run: as §1

[8] = system: ragweed (common ragweed, Ambrosia artemisiifolia); test: as above; conditions: 10 days
How it was run: as §1

[9] = system: ryegrass, Italian (italian ryegrass, Lolium multiflorum); test: as above; conditions: 10 days
How it was run: as §1

soybean (Glycine max) [10] = test: as above; conditions: 10 days
How it was run: as §1

[11] = system: wheat (Triticum aestivum); test: as above; conditions: 10 days
How it was run: as §1

[12] = system: barnyardgrass (Echinochloa crus-galli); test: Test A postemergence application, visual injury rating 0-100
How it was run: as §1

[13] = system: blackgrass (Alopecurus myosuroides); test: as above
How it was run: as §1

corn (Zea mays) [14] = test: as above
How it was run: as §1

[15] = system: galium (catchweed bedstraw, Galium aparine); test: as above
How it was run: as §1

[16] = system: green foxtail (Setaria viridis); test: as above
How it was run: as §1

kochia (Bassia scoparia) [17] = test: as above
How it was run: as §1

[18] = system: oat, wild (wild oat, Avena fatua); test: as above
How it was run: as §1

[19] = system: palmer (palmer amaranth, palmer pigweed, Amaranthus palmeri); test: as above
How it was run: as §1

[20] = system: ragweed (common ragweed, Ambrosia artemisiifolia); test: as above
How it was run: as §1

[21] = system: ryegrass, Italian (italian ryegrass, Lolium multiflorum); test: as above
How it was run: as §1

soybean (Glycine max) [22] = test: as above
How it was run: as §1

[23] = system: wheat (Triticum aestivum); test: as above
How it was run: as §1

[24] = system: barnyardgrass (Echinochloa crusgalli); test: Test B flooded paddy test, visual plant response rating 0-100; conditions: 250 g ai/ha, Flood, applied to paddy water, evaluated after 13 days
How it was run: (§2)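 Visual evaluation after 13 days. Water-applied treatment, 3 cm flood depth held constant, plants at 2-leaf stage at treatment.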

[25] = system: ducksalad (Heteranthera limosa); test: as above; conditions: 250 g ai/ha, Flood, applied to paddy water, evaluated after 13 days
How it was run: as §2

rice (Oryza sativa) = test: as above; conditions: 250 g ai/ha, Flood, applied to paddy water, evaluated after 13 days
How it was run: as §2

[26] = system: sedge, umbrella (small-flower umbrella sedge, Cyperus difformis); test: as above; conditions: 250 g ai/ha, Flood, applied to paddy water, evaluated after 13 days
How it was run: as §2

[27] = 62 g ai/ha, 0 = no effect, 100 = complete control
[28] = 62 g ai/ha, postemergence, 10 days, 0 = no effect, 100 = complete control
[29] = Postemergence, 16 g ai/ha, greenhouse 10 days, 0 no effect, 100 complete control

C=CC1(C(=O)NC2CC=C(C(=O)OC)C2)CN(c2cc(F)cc(F)c2)C(=O)O1 (racemic) [Compound 169]
50: Oat, Wild plant response rating (0-100) [6, 27] | Pigweed, Palmer plant response rating (0-100) [7, 27]
95: Plant response rating, Rice (0 to 100 scale, 0 is no effect and 100 is complete control) (rice (Oryza sativa))
0: Blackgrass plant response rating ([2]; 16 g ai/ha, 0 to 100 scale) | Corn plant response rating (corn (Zea mays) [3]; 16 g ai/ha, 0 to 100 scale) | Foxtail, Green plant response rating ([4]; 16 g ai/ha, 0 to 100 scale) | Kochia plant response rating (kochia (Bassia scoparia) [5]; 16 g ai/ha, 0 to 100 scale) | Pigweed, Palmer plant response rating ([7]; 16 g ai/ha, 0 to 100 scale) | Ragweed plant response rating ([8]; 16 g ai/ha, 0 to 100 scale) | Ragweed plant response rating (0 to 100 scale) [20, 29]
10: Barnyardgrass plant response rating ([1]; 16 g ai/ha, 0 to 100 scale) | Ragweed plant response rating (0-100) [8, 27] | Soybean plant response rating (soybean (Glycine max) [10]; 16 g ai/ha, 0 to 100 scale)
60: Corn plant response rating (0-100) (corn (Zea mays) [3]; [27]) | Soybean plant response rating (0 to 100 scale) (soybean (Glycine max) [22]; [29])
100: Barnyardgrass plant response rating (0-100) [12, 28] | Barnyardgrass plant response rating (0 to 100 scale) [12, 29] | Blackgrass plant response rating (0-100) [13, 28] | Blackgrass plant response rating (0 to 100 scale) [13, 29] | Corn plant response rating (0-100) (corn (Zea mays) [14]; [28]) | Corn plant response rating (0 to 100 scale) (corn (Zea mays) [14]; [29]) | Plant response rating, Ducksalad (0 to 100 scale, 0 is no effect and 100 is complete control) [25] | Plant response rating, Sedge, Umbrella (0 to 100 scale, 0 is no effect and 100 is complete control) [26]
30: Blackgrass plant response rating (0-100) [2, 27]
40: Kochia plant response rating (0-100) (kochia (Bassia scoparia) [5]; [27])
20: Oat, Wild plant response rating ([6]; 16 g ai/ha, 0 to 100 scale) | Soybean plant response rating (0-100) (soybean (Glycine max) [10]; [27]) | Pigweed, Palmer plant response rating (0 to 100 scale) [19, 29]
80: Wheat plant response rating ([11]; 16 g ai/ha, 0 to 100 scale) | Galium plant response rating (0-100) [15, 28] | Kochia plant response rating (0-100) (kochia (Bassia scoparia) [17]; [28]) | Kochia plant response rating (0 to 100 scale) (kochia (Bassia scoparia) [17]; [29]) | Ryegrass, Italian plant response rating (0 to 100 scale) [21, 29]
90: Barnyardgrass plant response rating (0-100) [1, 27] | Foxtail, Green plant response rating (0-100) [4, 27] | Ryegrass, Italian plant response rating ([9]; 16 g ai/ha, 0 to 100 scale) | Ryegrass, Italian plant response rating (0-100) [9, 27] | Wheat plant response rating (0-100) [11, 27] | Foxtail, Green plant response rating (0-100) [16, 28] | Foxtail, Green plant response rating (0 to 100 scale) [16, 29] | Oat, Wild plant response rating (0-100) [18, 28] | Oat, Wild plant response rating (0 to 100 scale) [18, 29] | Ryegrass, Italian plant response rating (0-100) [21, 28] | Wheat plant response rating (0-100) [23, 28] | Wheat plant response rating (0 to 100 scale) [23, 29] | Plant response rating, Barnyardgrass (0 to 100 scale, 0 is no effect and 100 is complete control) [24]
70: Galium plant response rating (0 to 100 scale) [15, 29] | Pigweed, Palmer plant response rating (0-100) [19, 28] | Ragweed plant response rating (0-100) [20, 28] | Soybean plant response rating (0-100) (soybean (Glycine max) [22]; [28])
